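Assay format: 96-well plates, 48-hour exposure. At the GI50, growth is halved.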 Active and inactive are the calls of the source. Rule as the data show it: active = GI50 up to about 1.1 µM and inactive = higher.
Legend:
Test in all cases: NCI anticancer screen, dose series, 48 h
OVCAR-8 = tested on: OVCAR-8
A498 = tested on: A498
UACC-257 = tested on: UACC-257
MCF7 = tested on: MCF7
CCRF-CEM = tested on: CCRF-CEM
SK-MEL-28 = tested on: SK-MEL-28
SNB-75 = tested on: SNB-75
SF-268 = tested on: SF-268
U-251 = tested on: U-251
SNB-19 = tested on: SNB-19
K562 = tested on: K562
ACHN = tested on: ACHN
HOP-92 = tested on: HOP-92
RXF 393 = tested on: RXF 393
HT-29 = tested on: HT-29
CAKI-1 = tested on: CAKI-1
KM12 = tested on: KM12
MOLT-4 = tested on: MOLT-4
HCT-116 = tested on: HCT-116
NCI-H226 = tested on: NCI-H226

| Compound | GI50 (OVCAR-8) | GI50 (A498) | GI50 (UACC-257) | GI50 (MCF7) | GI50 (CCRF-CEM) | GI50 (SK-MEL-28) | GI50 (SNB-75) | GI50 (SF-268) | GI50 (U-251) | GI50 (SNB-19) | GI50 (K562) | GI50 (ACHN) | GI50 (HOP-92) | GI50 (RXF 393) | GI50 (HT-29) | GI50 (CAKI-1) | GI50 (KM12) | GI50 (MOLT-4) | GI50 (HCT-116) | GI50 (NCI-H226) |
| --- | --- | --- | --- | --- | --- | --- | --- | --- | --- | --- | --- | --- | --- | --- | --- | --- | --- | --- | --- | --- |
| CC(C)N(C)C(=O)C12C3C4C1C1C2C3C41C#N (stereo not drawn) | > 100 µM (inactive) | > 100 µM (inactive) | > 100 µM (inactive) | > 100 µM (inactive) | > 100 µM (inactive) | > 100 µM (inactive) | 7.64 µM (inactive) | > 100 µM (inactive) | > 100 µM (inactive) | > 100 µM (inactive) | > 100 µM (inactive) | > 100 µM (inactive) | > 100 µM (inactive) | > 100 µM (inactive) | > 100 µM (inactive) | > 100 µM (inactive) | > 100 µM (inactive) | > 100 µM (inactive) | > 100 µM (inactive) |  |
| CC(C)NC(=O)OCc1nnn2c1CCC2 | > 100 µM (inactive) |  | > 100 µM (inactive) |  | > 100 µM (inactive) | > 100 µM (inactive) | > 100 µM (inactive) |  | > 100 µM (inactive) |  | > 100 µM (inactive) | > 100 µM (inactive) | 74 µM (inactive) | > 100 µM (inactive) | > 100 µM (inactive) |  | > 100 µM (inactive) | > 100 µM (inactive) | > 100 µM (inactive) |  |
| Cc1nc(N(CCO)CCO)c2sc(=S)n(-c3ccccc3)c2n1 | > 100 µM (inactive) | > 100 µM (inactive) | > 100 µM (inactive) |  | > 100 µM (inactive) | > 100 µM (inactive) | 10.8 µM (inactive) | > 100 µM (inactive) | > 100 µM (inactive) | > 100 µM (inactive) | > 100 µM (inactive) | > 100 µM (inactive) | > 100 µM (inactive) |  | > 100 µM (inactive) |  | > 100 µM (inactive) | > 100 µM (inactive) | > 100 µM (inactive) | > 100 µM (inactive) |
| COC(=O)c1ccc(NCc2cc(OC)ccc2OC)cc1 | > 100 µM (inactive) | 26.2 µM (inactive) | 52.1 µM (inactive) | 26.7 µM (inactive) | 42.1 µM (inactive) | 39.1 µM (inactive) | 34.2 µM (inactive) | > 100 µM (inactive) | 74.3 µM (inactive) | > 100 µM (inactive) | 35.6 µM (inactive) | 34.5 µM (inactive) | 42.7 µM (inactive) |  | 28.8 µM (inactive) | 33.7 µM (inactive) | 31.1 µM (inactive) | 33.3 µM (inactive) | 45 µM (inactive) | 69.8 µM (inactive) |
| C=C(/C=C/C=C(/CCC=C(C)C)COC(C)=O)[C@@H]1CC[C@]2([C@H](CCCO)/C(=C(/C)C=O)CC[C@]2(C)O)[C@@H]1O | 22.1 µM (inactive) |  | 17.7 µM (inactive) |  | 1.86 µM (inactive) | 13.7 µM (inactive) | > 10 µM (inactive) | 15.7 µM (inactive) | 15 µM (inactive) | 16.1 µM (inactive) | 2.92 µM (inactive) | 11.5 µM (inactive) | < 0.01 µM (active) | 18.4 µM (inactive) | 14.8 µM (inactive) | 3.05 µM (inactive) | 16.2 µM (inactive) | 9.29 µM (inactive) | 19.5 µM (inactive) | 4.61 µM (inactive) |
| COC12OC3(C4OC41)C(C(=O)O[C@H]3CO[Si](C)(C)C(C)(C)C)C2C(=O)Oc1ccccc1 (stereo partly drawn) | > 100 µM (inactive) | > 100 µM (inactive) | > 100 µM (inactive) | > 100 µM (inactive) | 38.1 µM (inactive) | > 100 µM (inactive) | > 100 µM (inactive) | > 100 µM (inactive) | > 100 µM (inactive) | > 100 µM (inactive) | > 100 µM (inactive) | > 100 µM (inactive) | > 100 µM (inactive) |  | > 100 µM (inactive) | > 100 µM (inactive) | > 100 µM (inactive) | > 100 µM (inactive) | > 100 µM (inactive) | > 100 µM (inactive) |
| COC(=O)C(NC(=O)OC(C)(C)C)P(=O)(OC)OC (stereo not drawn) | > 100 µM (inactive) | > 100 µM (inactive) | > 100 µM (inactive) | > 100 µM (inactive) |  | > 100 µM (inactive) |  | > 100 µM (inactive) | > 100 µM (inactive) | > 100 µM (inactive) | > 100 µM (inactive) | > 100 µM (inactive) | > 100 µM (inactive) | > 100 µM (inactive) | > 100 µM (inactive) | > 100 µM (inactive) | > 100 µM (inactive) | > 100 µM (inactive) | > 100 µM (inactive) | > 100 µM (inactive) |
| O=C1C2c3[nH]c4ccccc4c3C3CCSCC3C2C(=O)N1c1ccccc1 (stereo not drawn) | > 100 µM (inactive) | > 100 µM (inactive) | > 100 µM (inactive) |  | > 100 µM (inactive) | > 100 µM (inactive) | 15.9 µM (inactive) | > 100 µM (inactive) | > 100 µM (inactive) | > 100 µM (inactive) | 72.9 µM (inactive) | > 100 µM (inactive) | > 100 µM (inactive) | 25.8 µM (inactive) | > 100 µM (inactive) | > 100 µM (inactive) | > 100 µM (inactive) | 87.3 µM (inactive) | > 100 µM (inactive) | > 100 µM (inactive) |
